US6008188A, “Cytokine potentiator and pharmaceutical formulation for cytokine administration” (Kanebo Limited, priority 1994, dated 1999)
Where two headings read alike, the source gives them in different places.

Columns and labels:
[1] = system: Normal human fibroblasts [Detroit-551 (ATCC CCL 110)]; experiment: Response to βFGF: procollagenase production by normal human fibroblasts Detroit-551 (Test Examples 4-10); format: cell-based; settings: for activity at 3000 µM / activity at 1000 µM: Homo sapiens, Detroit 551, 96 h, read-out: Response to βFGF Increment; for Procollagenase Production: mean ± SD, n = 3
Protocol: (§1) In the following tests, the procollagenase production was quantified in terms of the collagenase activity as obtained through activation with trypsin.
(§2) It is known that βFGF promotes procollagenase production. In the following tests, therefore, the βFGF activity increment as attained by the compound added was calculated from the procollagenase production, relative to the control using purified water in place of the test compound.
(§3) Normal human fibroblasts [Detroit-551 (ATCC CCL 110) as prepared from the skin of a person] were suspended at a cell density of 1×10^5 cells/ml in the MEM medium, comprising 10% (V/V) FBS, 0.1% (W/V) (as final concentration) of enzymatic hydrolysate of lactalbumin (produced by Sigma Co.), 1% (V/V) non-essential amino acids and 1 mM sodium pyruvate (both produced by Dai-Nippon Pharmaceutical Co.). The suspended cells were seeded into each well of a 12-well plate in an amount of 0.8 ml/well (corresponding to 8×10^4 cells/well) and incubated in a saturated aqueous vapor with 5% CO2 at 37uC.
A cytokine activity enhancer (ethanolamine) as obtained in Example 3 mentioned below was diluted with an MEM medium containing 0.6% (V/V) FBS, 0.1% (W/V) (as final concentration) of enzymatic hydrolysate of lactalbumin, 1% (V/V) non-essential amino acids and 1 mM sodium pyruvate, to be 1 mM, and this was used as a solution to be added to the incubated cells.
(§4) After having been incubated for 24 hours, the culture medium was removed from the plate by suction, and the cells remained were washed twice with the MEM medium containing 0.6% (V/V) (as final concentration) of FBS. Then, the cells were fed with 0.8 ml of the solution prepared above, and were incubated for 4 days.
After the 4 days incubation, the culture medium was removed from the plate by suction, and the cells were fed with 0.8 ml of the MEM medium containing 3 ng/ml βFGF, 0.6% (V/V) FBS, 0.1% (W/V) (as final concentration) of enzymatic hydrolysate of lactalbumin, 1% (V/V) non-essential amino acids and 1 mM sodium pyruvate, and were incubated for 3 days to obtain a culture supernatant.
Next, in the same manner as in Test Example 1, procollagenase was recovered from the CM-Sepharose CL-6B (trade name), and the amount of procollagenase thus collected was measured.
A cytokine activity enhancer (N-methylethanolamine) as obtained in Example 4 to be mentioned hereinunder was tested for the βFGF activity increment, in the same manner as in Test Example 4.
as §3, with “collected” for “prepared”, “medium (hereinafter referred to as MEM2 medium),” for “medium,”, “1% (V/V)” for “0.1% (W/V)”, “of” for “of enzymatic hydrolysate of lactalbumin (produced by Sigma Co.), 1% (V/V)”, “The” for “The suspended”, “37° C.” for “37uC.”
A cytokine activity enhancer (Diisopropanolamine) as obtained in Example 5 mentioned below was diluted with the MEM2 medium containing 0.6% (V/V) FBS to be 3 mM, and this was used as a solution to be added to the incubated cells.
as §4, with “the MEM2” for “the MEM”, “prepared above” for “prepared above,”, “for 2” for “for 4”
After the 2 days incubation, the culture was removed by filtration under suction, and 0.8 ml of the solution was again added to the remaining cells, which were then incubated for 2 days. Thus, the cells were incubated for 4 days in total. […]

[2] = system: Normal human fibroblasts [CCD45SK (ATCC CRL 1506)]; experiment: Response to βFGF: procollagenase production by normal human fibroblasts CCD45SK (Test Examples 1-3); format: cell-based; settings: Test Example 3, 1 mM, 10 ng/ml βFGF
Protocol: as §1, §2
Normal human fibroblasts [CCD45SK (ATCC CRL 1506) as prepared from the skin of a person] were suspended at a cell density of 1×10^5 cells/ml in the MEM medium, comprising 10% (V/V) FBS and 1% (V/V) non-essential amino acids (produced by Dai-Nippon Pharmaceutical Co.). The suspended cells were seeded into each well of a 12-well plate in an amount of 0.8 ml/well (corresponding to 8×10^4 cells/well) and incubated in a saturated aqueous vapor with 5% CO2 at 37° C. […]
as §4, with “with an” for “with the”, “0.6% (v/v)” for “0.6% (V/V)”, “prepared above added to the cells, which” for “prepared above, and”, “for 2” for “for 4”
After the 2 days incubation, the culture medium was removed from the plate by suction, and the cells were fed with 0.8 ml of the solution and were further incubated for 2 days. This operation was repeated once again. Thus, the cells were processed in the medium containing the cytokine activity enhancer for 6 days in total.
After the above-mentioned process, the culture medium was removed from the plate by suction, and the cells were fed with 0.8 ml of an MEM medium containing 3 ng/ml of βFGF (produced by Boehringer Manheim Co.) and 0.6% (V/V) FBS, and were incubated for 3 days to obtain a culture supernatant.
3.5 ml of 10 mM Tris-HCl buffer [adjusted at pH 7.8 at 4° C., containing 1 mM calcium chloride and 0.05% (W/V) Brij-35] was added to 500 μl of the thus-obtained culture supernatant, and applied to CM-Sepharose CL-6B (trade name, produced by Pharmacia Co., having a bed volume of 0.5 ml) as previously equilibrated with the same buffer.
Next, the inhibitor was removed through treatment with 0.5 ml of the same buffer as above but containing 125 mM sodium chloride (4 times in all, 2 ml of the buffer was used in total), and the procollagenase was recovered through treatment with 0.5 ml of the same buffer as above but containing 500 mM sodium chloride (4 times in all, 2 ml of the buffer was used in total). This was used as a test sample.
The test sample was suitably diluted with a buffer for measurement (mentioned above), 25 μl of the thus-diluted sample was mixed with 25 μl of the buffer, 20 μl of a trypsin solution (as prepared by adding trypsin, Type 12 (produced by Sigma Co.) to the buffer at a concentration of 1 mg/ml) was added thereto, and this was incubated at 35° C. for 5 minutes. Then, 30 μl of a soybean trypsin inhibitor solution (as prepared at a concentration of 3 mg/ml, using the buffer) was added to this to thereby inactivate the trypsin. The resulting solution is designated collagenase solution.
Using type I collagen as labeled with fluorescein isothiocyanate (hereinafter referred to as FITC) (this is an acetic acid solution of FITC-collagen having a concentration of 1 mg/ml; produced by Cosmo-Bio Co.), as a substrate solution, the collagenase activity (unit/ml) of the solution was measured according to the method of Nagai et al. (see Inflammations, Vol. 4, No. 2, p. 123, 1984). […] The procollagenase production (unit/ml of culture medium) was thus obtained and referred to as X1.

[3] = system: Normal human fibroblasts [CCD45SK (ATCC CRL 1506)]; experiment: Response to TGF-β1: TIMP production by normal human fibroblasts (Test Examples 12-13); format: cell-based
Protocol: Normal human fibroblasts [CCD45SK (ATCC CRL 1506) as prepared from the skin of a person] were suspended at a cell density of 1×10^5 cells/ml in the MEM medium, comprising 10% (V/V) FBS and 1% (V/V) non-essential amino acids (produced by Dai-Nippon Pharmaceutical Co.). The suspended cells were seeded into each well of a 12-well plate in an amount of 0.8 ml/well (corresponding to 8×10^4 cells/well) and incubated in a saturated aqueous vapor with 5% CO2 at 37° C.

[4] = system: Japanese native, male house rabbits
Protocol: Aqueous solutions of N-methyl-L-serine, ethanolamine and N-methylethanolamine that had been adjusted to have a pH 7 with hydrochloric acid were used as test samples.
Using Japanese native, male house rabbits (body weight: about 3 kg), the test samples were tested according to the above-mentioned the Draize method.
Precisely, the back of each rabbit was shaven and rubbed to form a scratched site (scratched skin). An adhesive tape for patch test (1.2×1.6 cm; Ribbon Aid, registered trade mane, produced by River Tape Chemicals Co.) as wetted with 0.1 ml of water, or 0.1 ml of an aqueous 1% (W/V) solution of the test compound was stuck onto the scratched skin and the normal skin. […] In addition, 48 hours after the peeling of the tape, the condition of the skin was also observed.
The scores as referred to in Table 21 were obtained, and the primary stimulation score was calculated according to the following equation.
Primary Stimulation Score=[(A+B)/2]+[(C+D)/2]+[(E+F)/2]+[(G+H)/2]
Next, from the primary stimulation scores, obtained was the degree of stimulation with N-Methyl-L-Serine or Ethanolamine or N-Methylethanolamineaccording to the criteria shown in Table 22 below.

[5] = system: Japanese native, male house rabbits; remark: listed apart in the source
Protocol: Aqueous solutions of N-Methyl-L-Serine, Ethanolamine and N-Methylethanolamine that had been adjusted to have a pH of 7 with hydrochloric acid were used as test samples.
Using Japanese native, male house rabbits (body weight: about 3 kg), the test samples were tested according to the Draize method (see Appraisal of the Safety of Chemicals in Foods, Drugs and Cosmetics, p. 46, 1959, edited and published by the Deitorial Committee, Association of Food and Drug Officials of U.S.A.).
24 hours after the last application, the tested area of each rabbit was checked to score the erythema, edema, scab and rhagades, if any, formed in the area.
The erythema score, the edema score, the scab score, and the rhagades score as referred to in Table 17 were summed up to obtain the cumulative stimulation score.
Next, from the cumulative stimulation scores, obtained were the degrees of stimulation with N-Methyl-L-Serine, Ethanolamine and N-Methylethanolamine,according to the criteria shown in Table 18 below.

[6] = system: healthy panelists
Protocol: Aqueous solutions of N-methyl-L-serine, ethanolamine and N-methylethanolamine that had been adjusted to have a pH 7 with hydrochloric acid were used as test samples. These test samples were applied to 19 healthy panelists.
One hour and 24 hours after the removal of the patch, the condition of the skin of each panelist was observed.

[7] = system: IFN; settings: cited from earlier work
[8] = Test Examples 6-10, 3 mM, 4 days, 3 ng/ml βFGF, MEM2 medium, control = 100
[9] = Test Examples 6-10, 3 mM, 4 days, 3 ng/ml βFGF, MEM2 medium
[10] = Test Examples 4-5, 1 mM, 4 days, 3 ng/ml βFGF

For `CC(N)CO` (racemic) [Example 6, D,L-2-Amino-1-Propanol], the activity at 3000 µM [1, 8] was 380% and the “Procollagenase Production” value [1, 9] was 33 ± 4.7 unit/ml.

With `OCCNCCO` [Example 2, diethanolamine] the activity at 1000 µM ([2]; Homo sapiens, Fibroblast, control = 100, read-out: Response to βFGF Increment) was 190% and the “Procollagenase Production” value ([2]; mean ± SD, n = 3) was 14 ± 1.3 unit/ml.

In the case of `NCCO` [Example 3, ethanolamine], the activity at 1000 µM ([3]; Homo sapiens, Fibroblast, 144 h, read-out: Response to TGF-β1 Increment) is reported as 160%, the “TIMP Production” value ([3]; Test Example 13, 1 mM, 4 days, supernatant 6 days after TGF-β1, mean ± SD, n = 3) is reported as 250 ± 9.0 unit/ml and the activity at 1000 µM [1] is reported as 180%. The “Procollagenase Production” value [1, 10] was 21 ± 1.3 unit/ml, the “Primary Stimulation Score” value ([4]; 0.1 ml of aqueous 1% (W/V) solution, patch 24 hours, normal and scratched skin) was 0 and the “stimulation to the skin (in words)” value ([4]; aqueous 1% (W/V) solution) was “low”. For the same compound, the “Cumulative Stimulation Score” value ([5]; 0.1 ml of aqueous 0.1% (W/V) solution, once a day for 4 days) was 0, the “cumulative stimulation to the skin (in words)” value ([5]; aqueous 0.1% (W/V) solution) was “low” and the panelists with erythema ([6]; 0.05 ml of aqueous 1% (W/V) solution, 24 hours closed patch, 1 hour and 24 hours after removal, 19 panelists) was “only one panelists had minor erythema”.

In the case of `CNCCO` [Example 4, N-methylethanolamine], the activity at 1000 µM ([1]; Test Examples 4-5, 1 mM, 4 days, 3 ng/ml βFGF, control = 100) is reported as 180%, the “Procollagenase Production” value [1, 10] is reported as 12 ± 1.7 unit/ml and the “Primary Stimulation Score” value ([4]; rabbit, in vivo) is reported as 0.25. The “stimulation to the skin (in words)” value ([4]; rabbit, in vivo) was “low”, the “cumulative stimulation to the skin (in words)” value ([5]; rabbit, in vivo) was “low” and the panelists with erythema ([6]; in vivo) was “only one panelists had minor erythema”.

With `CC(O)CNCC(C)O` (stereo not shown) [Example 5, Diisopropanolamine] the activity at 3000 µM [1, 8] was 760% and the “Procollagenase Production” value [1, 9] was 65 ± 13 unit/ml.

For `CCC(N)CO` (stereo not shown) [Example 7, 2-Amino-1-Butanol], the activity at 3000 µM [1, 8] was 190% and the “Procollagenase Production” value [1, 9] was 22 ± 2.4 unit/ml.

With `NCC(O)CN` [Example 8, 1,3-Diamino-2-Propanol] the activity at 3000 µM [1, 8] was 150% and the “Procollagenase Production” value [1, 9] was 18 ± 0.95 unit/ml.

With `CCC(O)CN` (stereo not shown) [Example 9, 1-Amino-2-Butanol] the activity at 3000 µM [1, 8] was 290% and the “Procollagenase Production” value [1, 9] was 24 ± 2.3 unit/ml.

In the case of `CC1(C)[C@@H](O[C@H]2O[C@H](C(=O)O)[C@@H](O)[C@H](O)[C@H]2O[C@@H]2O[C@H](C(=O)O)[C@@H](O)[C@H](O)[C@H]2O)CC[C@]2(C)[C@H]3C(=O)C=C4[C@@H]5C[C@@](C)(C(=O)O)CC[C@]5(C)CC[C@@]4(C)[C@]3(C)CC[C@@H]12` [Glychrrhizic acid, glycyrrhizic acid], the IFN-producing activity [7] is given as “has an IFN-producing activity”.
